Test results as given in patent publication EP0609437B1, “NOVEL SPHINGOGLYCOLIPID AND USE THEREOF” (KIRIN BEER KABUSHIKI KAISHA, priority 1991, dated 1993).
Read-outs that look alike come from different tables or passages of the source.

Legend:
B16 mouse melanoma cells = experiment: Anti-tumor activity against B16 mouse melanoma inoculated subcutaneously; assay type: in vivo; settings: maximum tumor growth inhibition rate during the test period of 20 days, female BDF1 mice, 0.1 mg/kg intravenously on days 1, 5 and 9 after s.c. inoculation; for inhibition in vivo at 0.1 mg/kg: Mus musculus, iv, 480 h, read-out: TGIR (%)
Protocol: Anti-tumor activity against B16 mouse melanoma inoculated subcutaneously.
Experiment was carried out with the groups of 6 female BDF1 mice (6 weeks old) purchased from Japan SLC Inc., B16 mouse melanoma cells (1 × 10^6 cells/mouse) were inoculated subcutaneously in the rear region of mice, and the sample prepared in a concentration of 0.1 mg/kg was administered intravenously at a dose of 0.2 ml/20g/mouse after 1, 5 and 9 days from inoculation (the day of inoculation being set as 0 day). The volume of the tumor at the hypodermis of the rear region [(longer diameter × shorter diameter × height)/2] was measured on 8, 12, 16 and 20 days after inoculation, and the tumor growth inhibition rate (TGIR) of each sample was determined. TGIR was calculated from the following equation: TGIR (%) = (1 - T/C) × 100 [formula] wherein C represents a tumor volume of the control group and T represents a tumor volume of the group to which the sample was administered.
In this connection, respective test runs were divided by broken lines.

[1] = tested on: spleen cells of C57BL/6 mouse and pancreatic cells of BALB/c mouse; experiment: Lymphocyte mixed culture reaction (mouse MLR), uptake of 3H-TdR; assay type: cell-based; settings: for activity at 1 µg/mL / activity at 0.1 µg/mL / activity at 0.01 µg/mL: Mus musculus, Lymphocyte, read-out: Uptake of ^3H-TdR (% of control)
Protocol: Experiment was carried out with the spleen cells of C57BL/6 mouse which had been treated with mitomycin C (50 µg/ml, 30 min) as the stimulator and with the […] cells of BALB/c mouse as the responder. These […] cells were suspended to a concentration of 2 × 10^6 cells/ml with a culture medium of 10% FCS RPMI 1640, respectively. These cells (50 µl/well) and a sample (10 µl/well) were plated in a 96 well round-bottomed plate and cultured for 42 hours* under the condition of 37°C and 5% CO2. ^3H-thymidine (^3H-TdR) was added in a dose of 0.5 µCi/well. After 8 hours, the cells were harvested and subjected to the measurement of the uptake of ^3H-TdR by a liquid scintillation counter.
*The samples of the compounds 32, 33 and 34 were cultured for 4 days.

[2] = Acute toxicity, single intravenous administration; assay type: in vivo; settings: rat, in vivo; single intravenous dose, male Crj:CD rats, observed for 7 days
Protocol: (§1) The compound 5 was once administered intravenously in doses of 0.1, 1.0 and 10 mg/kg to the groups of 6 male Crj:CD rats (5 weeks old), and the toxicity tests were conducted for 7 days after the administration of the compound 5.

male Crj:CD rats = experiment: Acute toxicity, single intravenous administration; assay type: in vivo; settings: 7 days
Protocol: as §1

[3] = 50 h, sample concentration 10^0 µg/ml, cultured for 42 hours, then 8 hours with 3H-TdR
[4] = 50 h, sample concentration 10^-1 µg/ml, cultured for 42 hours, then 8 hours with 3H-TdR
[5] = 50 h, sample concentration 10^-2 µg/ml, cultured for 42 hours, then 8 hours with 3H-TdR
[6] = sample concentration 10^-1 µg/ml, cultured for 4 days
[7] = sample concentration 10^-2 µg/ml, cultured for 4 days

| Compound | inhibition in vivo at 0.1 mg/kg (B16 mouse melanoma cells) | activity at 1 µg/mL [1, 3] | activity at 0.1 µg/mL [1, 4] | activity at 0.01 µg/mL [1, 5] | other results |
| --- | --- | --- | --- | --- | --- |
| CCCCCCCCCCCCCCC[C@@H](O)[C@H](CO[C@H]1O[C@H](CO)[C@H](O)[C@H](O)[C@H]1O)NC(=O)CCCCCCCCCCCCC [Compound 5, (2S,3R)-1-(α-D-galactopyranosyloxy)-2-tetradecanoylamino-3-octadecanol] | 92.1% | 473% | 170% | 153% | LD50 at 168 h [2]: ≥ 10 mg/kg; lethality (male Crj:CD rats; single intravenous dose of 10 mg/kg): not lethal; autopsy findings (male Crj:CD rats; single intravenous doses of 0.1, 1.0 and 10 mg/kg): no abnormality was observed |
| CCCCCCCCCCCCCCCCCCCCCC[C@@H](O)C(=O)N[C@@H](CO[C@H]1O[C@H](CO)[C@H](O)[C@H](O)[C@H]1O)[C@H](O)[C@H](O)CCCCCCCCCCC [Compound 23, (2S,3S,4R)-1-(α-D-galactopyranosyloxy)-2-[(R)-2-hydroxytetracosanoylamino]-3,4-pentadecanediol] | 94.1% | 423% | 167% | 143% |  |
| CCCCCCCCCCCCCCCCCCCCCC[C@@H](O)C(=O)N[C@@H](CO[C@H]1O[C@H](CO)[C@H](O)[C@H](O)[C@H]1O)[C@H](O)[C@H](O)CCCCCCC [Compound 24, (2S,3S,4R)-1-(α-D-galactopyranosyloxy)-2-[(R)-2-hydroxytetracosanoylamino]-3,4-undecanediol] | 52.5% | 416% | 167% | 144% |  |
| CCCCCCCCCCCCCCCCCCCCCCCC[C@@H](O)C(=O)N[C@@H](CO[C@H]1O[C@H](CO)[C@H](O)[C@H](O)[C@H]1O)[C@H](O)[C@H](O)CCCCCCCCCCCCCC [Compound 25, (2S,3S,4R)-1-(α-D-galactopyranosyloxy)-2-[(R)-2-hydroxyhexacosanoylamino]-3,4-octadecanediol] | 92.8% | 230% | 179% | 161% |  |
| CCCCCCCCCCCCCCCCCCCCCCCC[C@@H](O)C(=O)N[C@@H](CO[C@H]1O[C@H](CO)[C@H](O)[C@H](O)[C@H]1O)[C@H](O)[C@H](O)CCCCCCCCCCCCCCC [Compound 26, (2S,3S,4R)-1-(α-D-galactopyranosyloxy)-2-[(R)-2-hydroxyhexacosanoylamino]-3,4-nonadecanediol] | 72.3% | 253% | 199% | 193% |  |
| CCCCCCCCCCCCCCCCCCCCCCCC[C@@H](O)C(=O)N[C@@H](CO[C@H]1O[C@H](CO)[C@H](O)[C@H](O)[C@H]1O)[C@H](O)[C@H](O)CCCCCCCCCCCCCCCC [Compound 27, (2S,3S,4R)-1-(α-D-galactopyranosyloxy)-2-[(R)-2-hydroxyhexacosanoylamino]-3,4-icosanediol] | 92.8% | 257% | 181% | 162% |  |
| CCCCCCCCCCCCCCCCCCCCCC[C@H](O)C(=O)N[C@@H](CO[C@H]1O[C@H](CO)[C@H](O)[C@H](O)[C@H]1O)[C@H](O)[C@H](O)CCCCCCCCCCCCC [Compound 28, (2S,3S,4R)-1-(α-D-galactopyranosyloxy)-2-[(S)-2-hydroxytetracosanoylamino]-3,4-heptadecanediol] | 76.2% | 357% | 172% | 141% |  |
| CCCCCCCC/C=C\CCCCCCCC(=O)N[C@@H](CO[C@H]1O[C@H](CO)[C@H](O)[C@H](O)[C@H]1O)[C@H](O)CCCCCCCCCCCCCCC [Compound 29, (2S,3R)-1-(α-D-galactopyranosyloxy)-2-oleoylamino-3-octadecanol] | 79.7% | 319% | 382% | 215% |  |
| CCCCCCCCCCCCCCCCCCCCCC[C@H](O)C(=O)N[C@@H](CO[C@H]1O[C@H](CO)[C@H](O)[C@H](O)[C@H]1O)[C@H](O)[C@H](O)CCCCCCCCCCCC(C)C [Compound 30, (2S,3S,4R)-1-(α-D-galactopyranosyloxy)-2-[(S)-2-hydroxytetracosanoylamino]-16-methyl-3,4-heptadecanediol] | 57.7% | 385% | 156% | 134% |  |
| CCCCCCCCCCCCCCCCCCCCCCCC(=O)N[C@@H](CO[C@H]1O[C@H](CO)[C@H](O)[C@H](O)[C@H]1O)[C@H](O)[C@H](O)CCCCCCCCCCCC(C)C [Compound 31, (2S,3S,4R)-1-(α-D-galactopyranosyloxy)-16-methyl-2-tetracosanoylamino-3,4-heptadecanediol] | 83.4% | 398% | 235% | 163% |  |
| CCCCCCCCCCCCCCCCCCCCCCC[C@@H](O)C(=O)N[C@@H](CO[C@H]1O[C@H](CO)[C@H](O)[C@H](O)[C@H]1O)[C@H](O)[C@H](O)CCCCCCCCCCCC(C)CC (stereo partly drawn) [Compound 34, (2S,3S,4R)-1-(α-D-galactopyranosyloxy)-2-[(R)-2-hydroxypentacosanoylamino]-16-methyl-3,4-octadecanediol] | 88.9% |  |  |  | activity at 0.1 µg/mL ([1]; 96 h, sample concentration 10^-1 µg/ml, cultured for 4 days): 360%; activity at 0.01 µg/mL ([1]; 96 h, sample concentration 10^-2 µg/ml, cultured for 4 days): 406% |
| CCCCCCCCCCCCC/C=C/[C@@H](O)[C@H](CO[C@H]1O[C@H](CO)[C@H](O)[C@H](O)[C@H]1O)NC(=O)CCCCCCCCCCCCC [Compound 35, (2S,3R,4E)-1-(α-D-galactopyranosyloxy)-2-tetradecanoylamino-4-octadecen-3-ol] | 63% | 562% | 261% | 247% |  |
| (2S,3S,4R)-1-(α-D-galactopyranosyloxy)-2-[(R)-2-hydroxytetracosanoylamino]-3,4-heptadecanediol [Compound 22] |  |  |  |  | TGIR (%) (B16 mouse melanoma cells): 82.4%; Uptake of ^3H-TdR (% of control) ([1]; sample concentration 10^0 µg/ml, cultured for 42 hours, then 8 hours with 3H-TdR): 414 % of control; Uptake of ^3H-TdR (% of control) ([1]; sample concentration 10^-1 µg/ml, cultured for 42 hours, then 8 hours with 3H-TdR): 166 % of control; Uptake of ^3H-TdR (% of control) ([1]; sample concentration 10^-2 µg/ml, cultured for 42 hours, then 8 hours with 3H-TdR): 149 % of control |
| (2S,3S,4R)-1-(α-D-galactopyranosyloxy)-2-[(R)-2-hydroxytetracosanoylamino]-3,4-hexadecanediol [Compound 32] |  |  |  |  | TGIR (%) (B16 mouse melanoma cells): 73.2%; Uptake of ^3H-TdR (% of control) [1, 6]: 406 % of control; Uptake of ^3H-TdR (% of control) [1, 7]: 426 % of control |
| (2S,3S,4R)-1-(α-D-galactopyranosyloxy)-2-[(R)-2-hydroxytricosanoylamino]-16-methyl-3,4-heptadecanediol [Compound 33] |  |  |  |  | TGIR (%) (B16 mouse melanoma cells): 76.5%; Uptake of ^3H-TdR (% of control) [1, 6]: 365 % of control; Uptake of ^3H-TdR (% of control) [1, 7]: 422 % of control |
